Like-named read-outs stand apart in the source and are kept apart here.
Experiments:
[1] = molecular target: EGFR in Baf3-L858R-T790M-C797S (Homo sapiens, UniProt P00533, C797S/L858R/T790M); assay: EGFR PROTAC HTRF experiment (total EGFR degradation); assay type: cell-based
Protocol: (§1) [table] Among them, B[…] -C797S (abbreviated as Baf3-DTC) is a stable Ba/F3 clone expressing exogenous EGFR gene bearing T790M, C797S and […] triple amino acid mutations, purchased from KYinno; Baf3-L858R-T790M - C797S (abbreviated as Baf3-LTC) is a stable Ba/F3 clone expressing exogenous EGFR gene bearing […], T790M, C797S triple mutations, purchased from KYinno. [table] [table] Dilutded Eu and d2 antibodies 2μl per well with detection buffer 20-fold. Then mixed the two antibody vials thoroughly. [table] Opened EnVision , locate the HTRF program, configured the board, and then read […]. The fitted curve, DC50 and Dmax of this compound could be generated using GraphPad Prism .

[2] = molecular target: EGFR in Baf3-19del-T790M-C797S (Homo sapiens, UniProt P00533, C797S/DEL746-750/T790M); assay: as above; assay type: cell-based
EGFR in Baf3-19del-T790M-C797S, sequence (P00533 with tags, fused parts or gaps DEL746-750/T790M/C797S): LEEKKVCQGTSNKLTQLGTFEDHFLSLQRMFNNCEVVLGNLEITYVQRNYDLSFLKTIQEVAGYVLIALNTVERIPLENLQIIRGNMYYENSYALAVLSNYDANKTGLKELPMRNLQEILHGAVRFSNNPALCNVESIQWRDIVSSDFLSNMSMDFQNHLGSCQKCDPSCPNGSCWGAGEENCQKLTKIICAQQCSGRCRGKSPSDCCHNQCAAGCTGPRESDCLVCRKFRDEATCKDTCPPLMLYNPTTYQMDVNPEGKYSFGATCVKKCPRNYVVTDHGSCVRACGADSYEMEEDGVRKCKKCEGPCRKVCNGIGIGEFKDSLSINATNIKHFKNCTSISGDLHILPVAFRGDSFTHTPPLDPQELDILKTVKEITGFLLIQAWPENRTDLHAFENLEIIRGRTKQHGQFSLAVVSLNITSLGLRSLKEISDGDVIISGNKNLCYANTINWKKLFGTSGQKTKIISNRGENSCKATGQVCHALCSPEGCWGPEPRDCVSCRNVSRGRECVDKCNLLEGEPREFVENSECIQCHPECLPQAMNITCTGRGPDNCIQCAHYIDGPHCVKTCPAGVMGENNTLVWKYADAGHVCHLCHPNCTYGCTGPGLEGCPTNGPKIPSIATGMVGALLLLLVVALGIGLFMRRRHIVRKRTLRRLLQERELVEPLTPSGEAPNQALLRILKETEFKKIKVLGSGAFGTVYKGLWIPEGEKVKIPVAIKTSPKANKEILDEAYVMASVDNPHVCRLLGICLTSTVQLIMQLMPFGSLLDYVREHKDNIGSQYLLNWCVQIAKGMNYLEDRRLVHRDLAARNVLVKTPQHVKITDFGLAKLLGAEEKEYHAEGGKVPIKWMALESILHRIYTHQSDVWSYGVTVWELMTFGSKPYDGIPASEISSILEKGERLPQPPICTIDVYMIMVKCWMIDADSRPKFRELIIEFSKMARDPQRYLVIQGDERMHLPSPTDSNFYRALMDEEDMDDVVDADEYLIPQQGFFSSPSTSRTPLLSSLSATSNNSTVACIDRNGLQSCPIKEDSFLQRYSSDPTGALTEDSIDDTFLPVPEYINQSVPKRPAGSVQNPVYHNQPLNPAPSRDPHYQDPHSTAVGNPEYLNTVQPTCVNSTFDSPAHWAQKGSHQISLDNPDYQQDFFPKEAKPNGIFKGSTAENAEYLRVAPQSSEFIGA
Protocol: as §1

HCC827 = assay: Cell anti-proliferation experiment (CTG); assay type: cell-based; conditions: Homo sapiens, HCC827 (exon 19 deletion), class symbol
Excerpt: (§2) H1975 has an EGFR: T790M/L858R double mutation, PC-9 has an EGFR exon 19 deletion, and HCC827 has an exon 19 deletion mutation. Baf3-19del- T790M -C797S (Baf3-DTC) is a stable Ba/F3 clone expressing exogenous EGFR gene bearing T790M, C797S, and […] triple amino acid mutations, purchased from KYinno. Baf3-L858R-T790M - C797S (Baf3-LTC) is a stable Ba/F3 clone expressing exogenous EGFR gene bearing […], T790M, and C797S triple mutations, purchased from KYinno. A549 is a wild-type EGFR, purchased from Nanjing Kebai Biotechnology. A431 is a wild-type EGFR, purchased from Shanghai Xinyu Biotechnology. CellCounting-Lite2.0, Trypsin EDTA, 37°C CO2 incubator, cell counter, EnVision Serial No. 1050454.
(§3) • A) Digested logarithmic phase cells with Trypsin EDTA, added culture medium to stop the reaction, and mixing well with a pipette to prepare a cell suspension. • B) Used Vi-cell to determine cell concentration, and prepared a suspension of 15,000-25,000 cells per milliliter according to the experimental purpose and cell characteristics. • C) After prepared the cell suspension, mixed it gently and added 100 µL to each well, so that the cell density to be tested is 1500-2500 per well.
(§4) • A) Weighed approximately 2 mg the compound and calculated the required volume of DMSO according to the formula: Compound mass (mg) * Compound purity (%) / Compound molecular weight * 1000. • B) Placed the inoculated cell culture plate into an incubator and incubated for about 24 hours. Then added compounds of varying concentrations. • C) Diluted the 10mM compound stock solution to […] with culture medium, and added the […] compound solution to the second column of the deep well plate in sequence, and added […] culture medium containing 0.5% DMSO to the third to eleventh columns. • D) Gradient dilution: Taked 125 µL solution from the second column and added it to the third column, mix well; then taked 125 µL solution from the third column and added it to the fourth column, repeated this operation until the tenth column. • E) Used a multichannel pipette, aspirated 25 µL the compound from the deep-well plate and added it to a 96-well culture plate. Repeated this process three times for each compound on the 96-well plate. This will ultimately create a concentration gradient of up to 10,000 nM at a 1:4 ratio on the 96-well plate.
(§5) • A) The effects of the compound were observed under an inverted microscope after the 96-well plate was incubated in an incubator for 72 hours. • B) Added 25 µL CTG solution to each well, placed on a shaker for 10 minutes, and read the […] of each well.
(§6) Calculate the % Cell Viability using the following formula: %Cell Viability = 100% × (Lum_Sample−Lum_LC)/(Lum_HC−Lum_LC) [formula] • Lum_HC: Cell readings from the 0.1% DMSO control group • Lum_Sample: Cell readings with added compound • Lum_LC: Blank culture medium reading
(§7) The IC50 value was obtained by curve fitting using GraphPad Prism 8 software.

[3] = system: Baf3-L858R-T790M - C797S (Baf3-LTC); assay: Cell anti-proliferation experiment (CTG); assay type: cell-based; conditions: class symbol
Excerpt: as §2, §3, §4, §5, §6, §7

H1975 = assay: Cell anti-proliferation experiment (CTG); assay type: cell-based; conditions: Homo sapiens, H1975 (EGFR T790M/L858R), class symbol
Excerpt: as §2, §3, §4, §5, §6, §7

A549 = assay: Cell anti-proliferation experiment (CTG); assay type: cell-based; conditions: Homo sapiens, A549 (wild-type EGFR), class symbol
Excerpt: as §2, §3, §4, §5, §6, §7

PC-9 = assay: Cell anti-proliferation experiment (CTG); assay type: cell-based; conditions: Homo sapiens, PC-9 (EGFR exon 19 deletion), class symbol
Excerpt: as §2, §3, §4, §5, §6, §7

A431 = assay: Cell anti-proliferation experiment (CTG); assay type: cell-based; conditions: Homo sapiens, A431 (wild-type EGFR), class symbol
Excerpt: as §2, §3, §4, §5, §6, §7

[4] = system: Baf3-19del- T790M -C797S (Baf3-DTC); assay: Cell anti-proliferation experiment (CTG); assay type: cell-based; conditions: class symbol
Excerpt: as §2, §3, §4, §5, §6, §7

[5] = Pharmacokinetic tests in male SD rats; assay type: in vivo; conditions: oral gavage (po), 10 mg/kg, plasma; for AUC(0-inf) / AUC(0-t) / Cmax / MRT last / Tmax: rat
Protocol: Three healthy adult male SD rats, 6-8 weeks old, weighing 200-300 grams.
EDTA-Na2 anticoagulant, weighed 11.2 g EDTA-Na2 and placed it in a reagent bottle. Added 100 mL physiological saline and shaked to dissolve completely. After preparation, dispensed into 1.5 mL centrifuge tubes, each containing approximately 20 µL, for whole blood sample collection.
Accurately weighed approximately 10 mg the sample to be tested, added 10% of the converted total volume of DMSO to dissolve it, and then slowly added 90% of the total volume of 0.5% MC solvent while stirring. Sonicated and vortex to mix thoroughly to obtain a solution of the preparation that is considered to be homogeneous, with a concentration of 1 mg/mL. Prepared fresh immediately before use.
Piped 0.2 mL the sample into a 1.5 mL centrifuge tube and store at -80°C for analysis of the concentration of the drug solution.
Animals were housed in rat cages and fasted for at least 10 hours starting the day before the experiment, but water was allowed. On the day of the experiment, each animal was weighed and marked on its tail. Blank blood samples were collected before drug administration. Blood was collected via tail vein.
• Route of administration: Oral gavage (po); • Dosage concentration: 1 mg/ml; • Dosage: 10 mg/kg; • Dosage volume: 10 mL/kg; • Procedure: Hold the rat upright with your left hand wearing a bite-proof glove, insert the gavage needle into the throat through the mouth, and insert the needle when feeling no obvious resistance. Then inject the drug into the stomach.
Whole blood (0.1-0.2 ml) was collected from test animals at 0.5 h, 1 h, 2 h, 4 h, 6 h, 8 h, 12 h, and 24 h after drug administration. The samples were placed in EDTA-Na 2 anticoagulant tubes, inverted 3-4 times to mix, and centrifuged at 4°C, 2000 g for 5 min to separate the supernatant plasma. The plasma was promptly transferred to -80°C for storage until analysis. Blood was collected via tail vein.
A quantitative detection method for the analyte was established using Shimadzu liquid chromatography and Triple Quad™ 6500+AB mass spectrometry. The concentration of the parent drug in plasma was analyzed. The analytical results were controlled for variation using quality control samples, with the accuracy of the quality control samples expected to be between 80% and 120%.
The main pharmacokinetic parameters were calculated using a non-compartmental model in Winnonlin Phoenix software. These parameters included the area under the curve (AUC(0-t) and AUC(0-∞)), elimination half-life (T1/2), maximum plasma concentration (Cmax ), and time to reach maximum plasma concentration (Tmax).The results are shown in Table 3.

[6] = Baf3-LTC, incubated 16 hours, HTRF total EGFR; read-out: Baf3-LTC DC50
[7] = Baf3-DTC, incubated 16 hours, HTRF total EGFR; read-out: Baf3-DTC DC50

EGFR in Baf3-L858R-T790M-C797S, sequence (P00533 25-1210 T790M/C797S/L858R): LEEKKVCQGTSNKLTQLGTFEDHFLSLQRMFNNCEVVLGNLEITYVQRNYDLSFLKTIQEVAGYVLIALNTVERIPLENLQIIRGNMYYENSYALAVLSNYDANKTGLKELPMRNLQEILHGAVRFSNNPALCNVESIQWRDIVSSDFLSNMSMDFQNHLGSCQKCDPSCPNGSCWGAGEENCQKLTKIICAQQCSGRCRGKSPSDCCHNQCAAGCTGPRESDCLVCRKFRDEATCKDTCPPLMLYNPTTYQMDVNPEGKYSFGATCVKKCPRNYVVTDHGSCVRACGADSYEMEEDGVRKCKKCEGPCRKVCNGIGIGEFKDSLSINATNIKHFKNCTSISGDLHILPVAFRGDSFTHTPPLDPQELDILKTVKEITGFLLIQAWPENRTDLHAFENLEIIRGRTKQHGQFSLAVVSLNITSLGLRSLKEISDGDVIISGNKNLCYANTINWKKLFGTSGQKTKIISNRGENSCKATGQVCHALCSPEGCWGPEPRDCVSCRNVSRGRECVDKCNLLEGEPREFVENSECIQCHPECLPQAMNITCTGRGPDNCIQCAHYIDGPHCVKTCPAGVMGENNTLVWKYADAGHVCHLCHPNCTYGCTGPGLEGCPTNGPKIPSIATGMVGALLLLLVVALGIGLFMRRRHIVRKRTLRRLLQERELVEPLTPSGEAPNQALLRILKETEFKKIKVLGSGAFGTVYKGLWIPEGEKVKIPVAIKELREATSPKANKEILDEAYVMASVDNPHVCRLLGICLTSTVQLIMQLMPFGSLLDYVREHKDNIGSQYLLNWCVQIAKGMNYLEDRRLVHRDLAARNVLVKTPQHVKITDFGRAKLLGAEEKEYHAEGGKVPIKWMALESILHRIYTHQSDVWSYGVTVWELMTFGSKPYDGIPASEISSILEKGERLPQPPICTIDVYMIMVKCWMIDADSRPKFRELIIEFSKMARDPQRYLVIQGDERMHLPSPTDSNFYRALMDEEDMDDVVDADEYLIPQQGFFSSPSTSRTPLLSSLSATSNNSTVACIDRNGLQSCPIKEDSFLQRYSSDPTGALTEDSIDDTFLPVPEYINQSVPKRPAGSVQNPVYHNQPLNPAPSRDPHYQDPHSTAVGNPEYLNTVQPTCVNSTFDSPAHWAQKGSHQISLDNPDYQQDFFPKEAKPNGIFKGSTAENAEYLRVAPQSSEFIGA

| Compound | DC50 [1, 6] [nM] | Dmax ([1]; read-out: Baf3-LTC Dmax) [%] | DC50 [2, 7] [nM] | Dmax ([2]; read-out: Baf3-DTC Dmax) [%] | IC50 (HCC827; HCC827, 72 h) [nM] | IC50 ([3]; 72 h) [nM] | IC50 (H1975; NCI-H1975, 72 h) [nM] | IC50 (A549; A549, 72 h) [nM] | IC50 (PC-9; PC-9, 72 h) [nM] | IC50 (A431; A-431, 72 h) [nM] | IC50 ([4]; 72 h) [nM] | HL [5] [h] | other results |
| --- | --- | --- | --- | --- | --- | --- | --- | --- | --- | --- | --- | --- | --- |
| CCc1ccc(Nc2nc(Nc3cc(CC)c(N4CCN(C(=O)CN5CCC(c6cc7c(cc6F)c(N6CCC(=O)NC6=O)nn7C)C(F)(F)C5)CC4)cc3OC)ncc2Cl)c(P(C)(C)=O)c1 (stereo not drawn) [TA-035] | 10 to 100 | 70 to 100 | 10 to 100 | 70 to 100 |  |  |  |  |  |  |  |  |  |
| CCc1cc(Nc2ncc(Cl)c(Nc3ccccc3P3(=O)CCCC3)n2)c(OC)cc1N1CCN(C(=O)CN2CCC(c3cc4c(cc3F)c(N3CCC(=O)NC3=O)nn4C)C(F)(F)C2)CC1 (stereo not drawn) [TA-045] | 10 to 100 | 70 to 100 | 10 to 100 | 70 to 100 |  |  |  |  |  |  |  |  |  |
| CCc1cc(Nc2ncc(Cl)c(Nc3ccccc3P(C)(C)=O)n2)c(OC)cc1N1CC2(CCN(C(=O)CN3CCC(c4cc5c(cc4F)c(N4CCC(=O)NC4=O)nn5C)CC3)CC2)C1 [TC-093] |  |  |  |  | 10 to 100 | 10 to 100 | 10 to 100 | > 1000 | 100 to 1000 | > 1000 | 10 to 100 | 3.43 | AUC(0-inf) [5]: 4930 ng·h/mL; AUC(0-t) [5]: 5030 ng·h/mL; Cmax [5]: 665 ng/mL; MRT last [5]: 5.98 h; Tmax [5]: 4 h |
| CCc1cc(Nc2ncc(Br)c(Nc3ccccc3P(C)(C)=O)n2)c(OC)cc1N1CCN(C(=O)Cn2nc(C)c(-c3cc4c(cc3F)c(N3CCC(=O)NC3=O)nn4C)c2C)CC1 [TC-144] |  |  |  |  | 100 to 1000 | < 10 | 10 to 100 | 100 to 1000 | 100 to 1000 | > 1000 | < 10 | 3.21 | AUC(0-inf) ([5]; in vivo): 4140 ng·h/mL; AUC(0-t) ([5]; in vivo): 4120 ng·h/mL; Cmax ([5]; in vivo): 700 ng/mL; MRT last ([5]; in vivo): 4.23 h; Tmax ([5]; in vivo): 0.67 h |
| CCc1cc(Nc2ncc(Br)c(Nc3ccccc3P(C)(C)=O)n2)c(OC)cc1N1CC2(CCN(C(=O)CN3CCC(c4cc5c(cc4F)c(N4CCC(=O)NC4=O)nn5C)C(F)(F)C3)CC2)C1 (stereo not drawn) [TC-164] |  | 70 to 100 |  | 70 to 100 |  |  |  |  |  |  |  |  | DC50 ([1]; read-out: Baf3-LTC DC50; Baf3-LTC, incubated 16 hours, HTRF total EGFR): < 10 nM; DC50 ([2]; read-out: Baf3-DTC DC50; Baf3-DTC, incubated 16 hours, HTRF total EGFR): < 10 nM; IC50 (HCC827; 72 hours): 10 to 100 nM; IC50 ([3]; 72 hours): < 10 nM; IC50 (H1975; NCI-H1975, 72 hours): < 10 nM; IC50 (A549; 72 hours): > 1000 nM; IC50 (PC-9; 72 hours): 100 to 1000 nM; IC50 (A431; A-431, 72 hours): > 1000 nM; IC50 ([4]; 72 hours): < 10 nM |
